Where two headings read alike, the source gives them in different places.
Legend:
ERK2 = ERK2 (Homo sapiens, UniProt P28482); assay: ERK1 and 2 Enzymatic Inhibition Assay (ERK2); format: biochemical; conditions: 10 assay concentrations 2×10^−6 M to 6×10^−11 M, 1% DMSO
Procedure: (§1) ERK1 and 2 Enzymatic Inhibition Assay
(§2) For the Ki determination assay, 200 μM stock solutions of compounds were subjected to a serial, semi-logarithmic dilution using 100% DMSO as a solvent. 10 distinct concentrations were prepared, with a dilution endpoint of 6×10^−9 M in 100% DMSO. 100% DMSO was used as a control. 10 μL from each of the serial dilutions were aliquoted into separate wells of a 96-well plate and 90 μL of water were added to each of those wells. The plate was shaken thoroughly, and 5 μL from each of the plate's wells were transferred into wells of the assay plate. The final volume of wells in the assay plate was 50 μL. All compounds were tested at 10 assay concentrations in the range from 2×10^−6 M to 6×10^−11 M. The final DMSO concentration in the wells of the assay plate was 1% in all cases.

[1] = test system: drug-resistant cell lines of Table 4; assay: Cell line growth retardation assay, average over resistant cohort; format: cell-based, Human; conditions: geometric mean of IC50s over resistant cohort (Table 4), 6 days growth, read-out: AvgRes IC50
Procedure: (§3) Cell Line Growth Retardation Assay
(§4) Cells were seeded at densities of 1,000-5,000 cells per well in 48-well tissue culture plates. After a 24 h rest period, cells were treated with compound at 10 μM, 2 μM, 0.4 μM, 0.08 μM, 0.016 μM, and 0.0032 μM. A group of cells were treated with the vehicle in which the compound was prepared and served as a control. The cells were grown in the presence of compounds for 6 days and were counted on day 0 and day 6. All cell counting was performed using a Synentec Cellavista plate imager. […] Growth inhibition was calculated as a ratio of cell population doublings in the presence of compound versus the absence of compound. […] IC50 values for each compound were calculated by fitting curves to data points from each dose-response assay using the Proc NLIN function in SAS for Windows version 9.2 (SAS Institute, Inc.).
(§5) Designation of Sensitivity and Resistant Cohorts and Calculation of Average IC50 Values
(§6) Human cancer cell lines were grouped as “sensitive” or “resistant” to ERK1 inhibition based on whether their growth was retarded by KO-947 (i.e., 1,5,6,8-tetrahydro-6-(phenylmethyl)-3-(4-pyridinyl)-7H-pyrazolo[4,3-g]quinazolin-7-one) and SCH772984 (i.e., (3R)-1-[2-oxo-2-[4-[4-(2-pyrimidinyl)phenyl]-1-piperazinyl]ethyl]-N-[3-(4-pyridinyl)-1H-indazol-5-yl]-3-pyrrolidinecarboxamide) (data not shown; see Table 4). These sensitive and resistant cohorts were interrogated for response to each compound, and IC50s were calculated for each cell line using the same technique described above. Average IC50s for the sensitive and resistant cohorts were calculated as geometric means of the group.

[2] = test system: drug-sensitive cell lines of Table 4; assay: Cell line growth retardation assay, average over sensitive cohort; format: cell-based, Human; conditions: geometric mean of IC50s over sensitive cohort (Table 4), 6 days growth, read-out: AvgSens IC50
Procedure: as §3, §4, §5, §6

ERK1 = ERK1 (Homo sapiens, UniProt P27361); assay: ERK1 and 2 Enzymatic Inhibition Assay (ERK1); format: biochemical; conditions: 10 assay concentrations 2×10^−6 M to 6×10^−11 M, 1% DMSO
Procedure: as §1, §2

Sequence of ERK2 (P28482 whole entry): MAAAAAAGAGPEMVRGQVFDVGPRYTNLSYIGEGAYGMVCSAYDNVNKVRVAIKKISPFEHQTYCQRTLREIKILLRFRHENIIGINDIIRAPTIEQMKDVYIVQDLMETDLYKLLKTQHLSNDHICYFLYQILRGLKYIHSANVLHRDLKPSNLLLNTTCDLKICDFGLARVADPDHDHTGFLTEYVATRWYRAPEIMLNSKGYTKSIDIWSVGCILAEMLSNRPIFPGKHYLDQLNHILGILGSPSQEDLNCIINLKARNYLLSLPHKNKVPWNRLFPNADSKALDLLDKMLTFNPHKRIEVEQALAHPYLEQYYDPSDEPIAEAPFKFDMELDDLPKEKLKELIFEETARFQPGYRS
Sequence of ERK1 (P27361 whole entry): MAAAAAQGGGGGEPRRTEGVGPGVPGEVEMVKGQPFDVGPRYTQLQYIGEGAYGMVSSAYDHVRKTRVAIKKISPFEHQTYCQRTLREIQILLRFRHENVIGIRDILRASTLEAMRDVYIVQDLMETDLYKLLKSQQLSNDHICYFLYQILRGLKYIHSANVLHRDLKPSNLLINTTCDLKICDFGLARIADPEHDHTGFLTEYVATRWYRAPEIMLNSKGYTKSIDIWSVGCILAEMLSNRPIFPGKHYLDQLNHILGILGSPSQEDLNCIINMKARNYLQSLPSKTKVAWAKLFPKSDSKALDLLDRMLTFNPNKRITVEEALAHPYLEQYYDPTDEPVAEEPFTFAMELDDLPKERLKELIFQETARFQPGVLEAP

Structure (SMILES) | Kd (ERK2) [nM] | IC50 ([1]; Homo sapiens, 144 h) [nM] | IC50 ([2]; Homo sapiens, 144 h) [nM] | Kd (ERK1) [nM] | IC50 [1] [nM] | IC50 [2] [nM]
C[C@H](NC(=O)c1ncc(-c2c[nH]c3ncc(-c4ccncc4)cc23)cn1)c1ccccc1 [Compound 39, (S)—N-(1-phenylethyl)-5-(5-(pyridin-4-yl)-1H-pyrrolo[2,3-b]pyridin-3-yl)pyrimidine-2-carboxamide] | ≤ 10 | > 500 | ≤ 250 | ≤ 10 | – | –
CC(NC(=O)c1ncc(-c2c[nH]c3ncc(N4CCOCC4)cc23)cn1)c1ccn(C)c1 (stereo not shown) [Compound 24, N-(1-(1-methyl-1H-pyrrol-3-yl)ethyl)-5-(5-morpholino-1H-pyrrolo[2,3-b]pyridin-3-yl)pyrimidine-2-carboxamide] | 11 to 100 | > 500 | > 500 | 11 to 100 | – | –
c1ccc([C@@H]2COC(c3ncc(-c4c[nH]c5ncc(N6CCOCC6)cc45)cn3)=N2)cc1 [Compound 52, (R)-4-(3-(2-(4-phenyl-4,5-dihydrooxazol-2-yl)pyrimidin-5-yl)-1H-pyrrolo[2,3-b]pyridin-5-yl)morpholine] | – | – | – | – | > 500 | > 500
CCN1C[C@H](c2ccccc2)N=C1c1ncc(-c2c[nH]c3ncc(N4CCOCC4)cc23)cn1 [Compound 51, (S)-4-(3-(2-(1-ethyl-4-phenyl-4,5-dihydro-1H-imidazol-2-yl)pyrimidin-5-yl)-1H-pyrrolo[2,3-b]pyridin-5-yl)morpholine] | 11 to 100 | > 500 | 251 to 500 | 11 to 100 | – | –
Cc1cc(-c2cnc3[nH]cc(-c4cnc(C(=O)NC(C)c5ccccc5)nc4)c3c2)ccn1 (stereo in doubt) [Compound 40, (R)-5-(5-(2-methylpyridin-4-yl)-1H-pyrrolo[2,3-b]pyridin-3-yl)-N-(1-phenylethyl)pyrimidine-2-carboxamide] | ≤ 10 | > 500 | ≤ 250 | ≤ 10 | – | –
COc1ccccc1[C@H](C)NC(=O)c1ncc(-c2c[nH]c3ncc(N4CCOCC4)cc23)cn1 [Compound 46, (S)—N-(1-(2-methoxyphenyl)ethyl)-5-(5-morpholino-1H-pyrrolo[2,3-b]pyridin-3-yl)pyrimidine-2-carboxamide] | ≤ 10 | > 500 | 251 to 500 | ≤ 10 | – | –
N#Cc1ccccc1CCNC(=O)c1ncc(-c2c[nH]c3ncc(N4CCOCC4)cc23)cn1 [Compound 66, N-(2-cyanophenethyl)-5-(5-morpholino-1H-pyrrolo[2,3-b]pyridin-3-yl)pyrimidine-2-carboxamide] | ≤ 10 | > 500 | > 500 | ≤ 10 | – | –
O=C(NCCc1ccccn1)c1ncc(-c2c[nH]c3ncc(N4CCOCC4)cc23)cn1 [Compound 60, 5-(5-morpholino-1H-pyrrolo[2,3-b]pyridin-3-yl)-N-(2-(pyridin-2-yl)ethyl)pyrimidine-2-carboxamide] | 11 to 100 | > 500 | > 500 | 11 to 100 | – | –
O=C(NCc1ccc(C(F)(F)F)cc1)c1ncc(-c2c[nH]c3ncc(N4CCOCC4)cc23)cn1 [Compound 10, 5-(5-morpholino-1H-pyrrolo[2,3-b]pyridin-3-yl)-N-(4-(trifluoromethyl)benzyl)pyrimidine-2-carboxamide] | > 100 | > 500 | > 500 | > 100 | – | –
C[C@H](NC(=O)c1ncc(-c2c[nH]c3ncc(N4CCOCC4)cc23)cn1)c1ccccc1F [Compound 44, (S)—N-(1-(2-fluorophenyl)ethyl)-5-(5-morpholino-1H-pyrrolo[2,3-b]pyridin-3-yl)pyrimidine-2-carboxamide] | ≤ 10 | > 500 | ≤ 250 | ≤ 10 | – | –
O=C(NC(CO)c1ccccc1)c1ncc(-c2c[nH]c3ncc(N4CCOCC4)cc23)cn1 (stereo in doubt) [Compound 53, (S)—N-(2-hydroxy-1-phenylethyl)-5-(5-morpholino-1H-pyrrolo[2,3-b]pyridin-3-yl)pyrimidine-2-carboxamide] | ≤ 10 | > 500 | > 500 | ≤ 10 | – | –
CC(NC(=O)c1ncc(-c2c[nH]c3ncc(N4CCO[C@@H](C)C4)cc23)cn1)c1ccccc1 (stereo in doubt) [Compound 37, 5-(5-((S)-2-methylmorpholino)-1H-pyrrolo[2,3-b]pyridin-3-yl)-N—((R)-1-phenylethyl)pyrimidine-2-carboxamide] | 11 to 100 | > 500 | > 500 | ≤ 10 | – | –
CN(Cc1ccccc1)C(=O)c1ncc(-c2c[nH]c3ncc(N4CCOCC4)cc23)cn1 [Compound 8, N-benzyl-N-methyl-5-(5-morpholino-1H-pyrrolo[2,3-b]pyridin-3-yl)pyrimidine-2-carboxamide] | > 100 | > 500 | > 500 | > 100 | – | –
O=C(c1ncc(-c2c[nH]c3ncc(N4CCOCC4)cc23)cn1)N1CCC[C@H]1c1ccccc1 [Compound 19, (S)-(5-(5-morpholino-1H-pyrrolo[2,3-b]pyridin-3-yl)pyrimidin-2-yl)(2-phenylpyrrolidin-1-yl)methanone] | > 100 | > 500 | > 500 | > 100 | – | –
C[C@@H](CNC(=O)c1ncc(-c2c[nH]c3ncc(N4CCOCC4)cc23)cn1)c1ccccc1 [Compound 33] | 11 to 100 | – | – | 11 to 100 | – | –
c1ccc([C@@H]2CN=C(c3ncc(-c4c[nH]c5ncc(N6CCOCC6)cc45)cn3)O2)cc1 [Compound 54, (R)-4-(3-(2-(5-phenyl-4,5-dihydrooxazol-2-yl)pyrimidin-5-yl)-1H-pyrrolo[2,3-b]pyridin-5-yl)morpholine] | – | – | – | – | > 500 | –
O=C(NCCc1ccccc1F)c1ncc(-c2c[nH]c3ncc(N4CCOCC4)cc23)cn1 [Compound 58, N-(2-fluorophenethyl)-5-(5-morpholino-1H-pyrrolo[2,3-b]pyridin-3-yl)pyrimidine-2-carboxamide] | ≤ 10 | – | – | ≤ 10 | – | –
C[C@H](NC(=O)c1ncc(-c2c[nH]c3ncc(N4CCOCC4)cc23)cn1)c1ccccc1C#N [Compound 48, (S)—N-(1-(2-cyanophenyl)ethyl)-5-(5-morpholino-1H-pyrrolo[2,3-b]pyridin-3-yl)pyrimidine-2-carboxamide] | 11 to 100 | – | – | ≤ 10 | – | –
O=C(Nc1ccccc1)c1ncc(-c2c[nH]c3ncc(N4CCOCC4)cc23)cn1 [Compound 23, 5-(5-morpholino-1H-pyrrolo[2,3-b]pyridin-3-yl)-N-phenylpyrimidine-2-carboxamide] | > 100 | – | – | > 100 | – | –
O=C(NCCc1cccc(C(F)(F)F)c1)c1ncc(-c2c[nH]c3ncc(N4CCOCC4)cc23)cn1 [Compound 64, 5-(5-morpholino-1H-pyrrolo[2,3-b]pyridin-3-yl)-N-(3-(trifluoromethyl)phenethyl)pyrimidine-2-carboxamide] | 11 to 100 | – | – | 11 to 100 | – | –
C[C@H](NC(=O)c1ncc(-c2c[nH]c3ncc(NCCO)cc23)cn1)c1ccccc1 [Compound 68] | 11 to 100 | – | – | 11 to 100 | – | –
C[C@@H](Cc1ccccc1)NC(=O)c1ncc(-c2c[nH]c3ncc(N4CCOCC4)cc23)cn1 [Compound 30, (S)-5-(5-morpholino-1H-pyrrolo[2,3-b]pyridin-3-yl)-N-(1-phenylpropan-2-yl)pyrimidine-2-carboxamide] | > 100 | – | – | > 100 | – | –
O=C(NCCc1ccccc1C(F)(F)F)c1ncc(-c2c[nH]c3ncc(N4CCOCC4)cc23)cn1 [Compound 59, 5-(5-morpholino-1H-pyrrolo[2,3-b]pyridin-3-yl)-N-(2-(trifluoromethyl)phenethyl)pyrimidine-2-carboxamide] | ≤ 10 | – | – | 11 to 100 | – | –
O=C(NCCc1cccc(F)c1)c1ncc(-c2c[nH]c3ncc(N4CCOCC4)cc23)cn1 [Compound 63, N-(3-fluorophenethyl)-5-(5-morpholino-1H-pyrrolo[2,3-b]pyridin-3-yl)pyrimidine-2-carboxamide] | 11 to 100 | – | – | 11 to 100 | – | –

From patent US12428416B2 (California Institute of Technology, priority 2018, dated 2025)
